# Experimental data from patent publication US5554653A, “Inhibitors of HIV protease useful for the treatment of AIDS” (Eli Lilly and Company, priority 1992, dated 1996).
# Target: T1, HIV-1 protease (Human immunodeficiency virus type 1 group M subtype B, UniProt P04585)
# T1 construct: Purified HIV-1 protease was obtained as described above; made in house; host or cells: E. coli K12 L507/pHP10D (NRRL B-18560)
# Assay: biochemical
# Type: biochemical
# Conditions: for IC50: read-out: Fluorescence Assay IC50 (converted)
# Method: C. Preparation of Protease Fraction
# A culture of E. coli K12 L507/pHP10D was grown to mid-log phase at 32° C. in LB media containing 12.5 μg/ml tetracycline. The cultivation temperature was quickly elevated to 40° C. to induce gene expression, and the cells were allowed to grow for 2.5 hours at this temperature before the culture was quickly chilled on ice. The cells were centrifuged and the cell pellet was resuspended in 20 mL 50 mmol MES buffer (pH 6.0) containing 1 mmol EDTA, 1 mmol DTT, 1 mmol PMSF and 10% glycerol ("Buffer A"). Cells were lysed by sonication using a Fischer Model 300 Dismembrator and a microtip probe. Following centrifugation at 27,000×g, the supernatant was diluted to a total volume of 60 mL with Buffer A and loaded onto a 2.0×19 cm QAE-Sepharose column (1 mL/min, 4° C.), that had been equilibrated in Buffer A. The column was washed isocratically for 180 min and then eluted with a gradient eluent of 0-1.0M sodium chloride in Buffer A over 120 min. Enzymatic activity was measured by HPLC using the synthetic peptide SQNYPIV as described in Margolin et al., Biochem. Biophys. Res. Commun., 167, 554-560 (1990); the production of the p1 peptide (SQNY) was measured.
# The active fractions were combined, made 1.2M in ammonium sulfate, and applied to a 2.0×18 cm hexyl agarose column that had been equilibrated in Buffer A containing 1.2M ammonium sulfate. The sample was loaded at a flow rate of 1 mL/min at 4° C., washed with the equilibration buffer for 240 min (1 mL/min) and then eluted using a reverse linear gradient of 1.2-0M ammonium sulfate in Buffer A for 120 min at the same flow rate. The column was then washed isocratically in Buffer A for 120 min.
# The active fractions were combined, concentrated to 10 mL using an Amicon stirred cell with a YM-10 membrane and then applied to a MonoS cation exchange column (1.0×10 cm) that had been equilibrated in Buffer A. The sample was loaded at a flow rate of 1 mL/min at 25° C. After washing isocratically for 30 min, the protease was eluted using a linear gradient of 0-0.45M sodium chloride in Buffer A over 40 min. The column was washed isocratically in Buffer A containing 0.45M sodium chloride for 30 min.
# The active fractions were combined and concentrated to 200 μL using an Amicon stirred cell and a YM-10 membrane and then the protease was applied to a Superose 6 size exclusion column equilibrated in Buffer A containing 0.1M sodium chloride.
# The purified peptide was labeled with a fluorescent marker at the C-terminal end for use in the Pandex assay. N^α -Biotin-[…]OH SEQ ID NO:3. (1.206 g, 0.936 mmol) was dissolved in 100 mL of 0.1M sodium borate, pH 9.5. Then, a solution of 3 g (7.7 mmol) of fluorescein isothiocyanate in 15 mL dimethyl sulfoxide was added to the reaction mixture in 10 equal portions over two hours. The resulting mixture was allowed to react for one hour after the final addition. The solution was adjusted to pH 3 using 5N hydrochloric acid, resulting in the formation of a precipitate which was removed by centrifugation.
# E. Fluorescence HIV-1 Protease Inhibitor Assay
# The following buffers and solutions are used in the Fluorescence HIV-1 Protease Inhibitor Assay:
# MES-ALB Buffer: 0.05M 4-morpholineethane
# Avidin Coated 0.1% solution of Fluoricon
# Beads Solution: Avidin Assay Particles
# (Avidin conjugated to solid
# polystyrene beads, 0.6-0.8
# microns in diameter in TBSA
# 27 IU/mL of purified HIV-1
# protease in MES-ALB buffer
# (1 IU equals the amount of
# enzyme required to hydrolyze
# 1 μmole of substrate per
# To each well of a round bottom, 96-well plate is added 20 μL of the Enzyme Solution followed by 10 μL of the compound to be evaluated in a 20% aqueous dimethylsulfoxide solution. Purified HIV-1 protease was obtained as described above.
Structure (SMILES),IC50 [nM],further results
"CC(=O)N[C@H](CSc1ccc2ccccc2n1)C(=O)N[C@@H](Cc1ccccc1)[C@H](O)Cc1ccccc1C(=O)NC(C)(C)C [Example 24A, [2R-(2R*,3S*,6S*)]-N-t-Butyl-2-[2-hydroxy-3-phenylmethyl-4-aza-5-oxo-6-N(ethanoyl)amino-7-quinolin-2-ylthio]heptyl benzamide]",3.75,–
"CC(=O)N[C@H](C[S+]([O-])c1ccc2ccccc2n1)C(=O)N[C@@H](Cc1ccccc1)[C@H](O)Cc1ccccc1C(=O)NC(C)(C)C (stereo partly drawn) [Example 24B, [2R-(2R*,3S*,6S*)]-N-t-Butyl-2-[2-hydroxy-3-phenylmethyl-4-aza-5-oxo-6-N(ethanoyl)amino-7-quinolin-2-ylsulfinyl]heptyl benzamide]",0.207,–
"CC(=O)N[C@H](CS(=O)(=O)c1ccc2ccccc2n1)C(=O)N[C@@H](Cc1ccccc1)[C@H](O)Cc1ccccc1C(=O)NC(C)(C)C [Example 24C, [2R-(2R*,3S*,6S*)]-N-t-Butyl-2-[2-hydroxy-3-phenylmethyl-4-aza-5-oxo-6-N(ethanoyl)amino-7-quinolin-2-ylsulfonyl]heptyl benzamide]",0.248,–
"CC(=O)N[C@H](Cc1c[nH]c2ccccc12)C(=O)N[C@@H](Cc1ccccc1)[C@H](O)Cc1ccccc1C(=O)NC(C)(C)C [Example 25, [2R-(2R*,3S*,6R*)]-N-t-Butyl-2-[2-hydroxy-3-phenylmethyl-4-aza-5-oxo-6-N-(ethanoyl)amino-7-indol-3-yl]heptyl benzamide]",> 1760,–
"CC(=O)N[C@H](Cc1ccccc1)C(=O)N[C@@H](Cc1ccccc1)[C@H](O)Cc1ccccc1C(=O)NC(C)(C)C [Example 26, [2R-(2R*,3S*,6R*)]-N-t-Butyl-2-[2-hydroxy-3-phenylmethyl-4-aza-5-oxo-6-N-(ethanoyl)amino-7-phenyl]heptyl benzamide]",–,IC45 (read-out: Fluorescence Assay IC45): 1 µg/mL
"CC(C)(C)NC(=O)c1ccccc1C[C@@H](O)[C@H](Cc1ccccc1)NC(=O)[C@H](CC(N)=O)NS(=O)(=O)c1ccccn1 [Example 29C, [2R-(2R*,3S*,6S*)]-N-t-Butyl-2-[2-hydroxy-3-phenylmethyl-4-aza-5-oxo-6-N(pyrid-2-ylsulfonyl)amino-7-carbamoyl]heptyl benzamide]",371,–
"CC(C)(C)NC(=O)c1ccccc1C[C@@H](O)[C@H](Cc1ccccc1)NC(=O)[C@H](CC(N)=O)NS(=O)(=O)c1cccc2cccnc12 [Example 30, [2R-(2R*,3S*,6S*)]-N-t-Butyl-2-[2-hydroxy-3-phenylmethyl-4-aza-5-oxo-6-N(quinolin-8-ylsulfonyl)amino-7-carbamoyl]heptyl benzamide]",18.6,–
"CC(C)(C)NC(=O)c1ccccc1C[C@@H](O)[C@H](Cc1ccccc1)NC(=O)[C@H](CC(=O)OCc1ccccc1)NC(=O)OC(C)(C)C [Example 31A, [2R-(2R*,3S*,6S*)]-N-t-Butyl-2-[2-hydroxy-3-phenylmethyl-4-aza-5-oxo-6-N(t-butoxycarbonyl)amino-7-benzyloxycarbonyl]heptyl benzamide]",–,IC8 (read-out: Fluorescence Assay IC8): 1 µg/mL
"CC(C)(C)NC(=O)c1ccccc1C[C@@H](O)[C@H](Cc1ccccc1)NC(=O)[C@H](CC(=O)OCc1ccccc1)NS(C)(=O)=O [Example 31C, [2R-(2R*,3S*,6S*)]-N-t-Butyl-2-[2-hydroxy-3-phenylmethyl-4-aza-5-oxo-6-N(methylsulfonyl)amino-7-benzyloxycarbonyl]heptyl benzamide]",–,IC30 (read-out: Fluorescence Assay IC30): 1 µg/mL
"CC(=O)N[C@@H](CSCc1ccccc1)C(=O)N[C@@H](Cc1ccccc1)[C@H](O)Cc1ccccc1C(=O)NC(C)(C)C [Example 32, [2R-(2R*,3S*,6R*)]-N-t-Butyl-2-[2-hydroxy-3-phenylmethyl-4-aza-5-oxo-6-N-(ethanoyl)amino-7-benzylthio]heptyl benzamide]",–,IC12 (read-out: Fluorescence Assay IC12): 1 µg/mL
"CC(C)(C)NC(=O)c1ccccc1C[C@@H](O)[C@H](Cc1ccccc1)NC(=O)[C@H](CC(N)=O)NS(=O)(=O)c1cccc2ccccc12 [Example 33, [2R-(2R*,3S*,6S*)]-N-t-Butyl-2-[2-hydroxy-3-phenylmethyl-4-aza-5-oxo-6-N (naphth-1-ylsulfonyl)amino-7-carbamoyl]heptyl benzamide]",68.2,–
"CC(C)(C)NC(=O)c1ccccc1C[C@@H](O)[C@H](Cc1ccccc1)NC(=O)[C@H](CC(N)=O)NS(=O)(=O)c1ccc2ccccc2c1 [Example 34, [2R-(2R*,3S*,6S*)]-N-t-Butyl-2-[2-hydroxy-3-phenylmethyl-4-aza-5-oxo-6-N (naphth-2-ylsulfonyl)amino-7-carbamoyl]heptyl benzamide]",2.02,–
"CC(C)(C)NC(=O)c1ccccc1C[C@@H](O)[C@H](Cc1ccccc1)NC(=O)[C@H](CC(N)=O)NS(=O)(=O)CCc1cccc2ccccc12 [Example 35, [2R-(2R*,3S*,6S*)]-N-t-Butyl-2-[2-hydroxy-3-phenylmethyl-4-aza-5-oxo-6-N (naphth-1-ylethylsulfonyl)amino-7-carbamoyl]heptyl benzamide]",1.04,–
"CC(C)(C)NC(=O)c1ccccc1C[C@@H](O)[C@H](Cc1ccccc1)NC(=O)[C@@H](CSc1ccc(F)cc1)NC(=O)OC(C)(C)C [Example 37A, [2R-(2R*,3S*,6S*)]-N-t-Butyl-2-[2-hydroxy-3-phenylmethyl-4-aza-5-oxo-6-N(t-butoxycarbonyl)amino-7-(p-fluorophenylthio)]heptyl benzamide]",> 1570,–
"CC(C)(C)NC(=O)c1ccccc1C[C@@H](O)[C@H](Cc1ccccc1)NC(=O)[C@H](N)CSc1ccc(F)cc1 [Example 37B, [2R-(2R*,3S*,6S*)]-N-t-Butyl-2-[2-hydroxy-3-phenylmethyl-4-aza-5-oxo-6-amino-7-(p-fluorophenylthio)]heptyl benzamide]",5330,–
"CC(C)(C)NC(=O)c1ccccc1C[C@@H](O)[C@H](Cc1ccccc1)NC(=O)[C@@H](CSc1ccc(F)cc1)NS(C)(=O)=O [Example 37C, [2R-(2R*,3S*,6S*)]-N-t-Butyl-2-[2-hydroxy-3-phenylmethyl-4-aza-5-oxo-6-N(methylsulfonyl)amino-7-(p-fluorophenylthio)]heptyl benzamide]",1.79,–
"CC(C)(C)NC(=O)c1ccccc1C[C@@H](O)[C@H](Cc1ccccc1)NC(=O)[C@@H](C[S+]([O-])c1ccc(F)cc1)NS(C)(=O)=O (stereo partly drawn) [Example 37D, [2R-(2R*,3S*,6S*)]-N-t-Butyl-2-[2-hydroxy-3-phenylmethyl-4-aza-5-oxo-6-N(methylsulfonyl)amino-7-(p-fluorophenylsulfinyl)]heptyl benzamide]",0.158,–
"Cn1nnnc1SC[C@@H](NC(=O)OC(C)(C)C)C(=O)N[C@@H](Cc1ccccc1)[C@H](O)Cc1ccccc1C(=O)NC(C)(C)C [Example 39A, [2R-(2R*,3S*,6S*)]-N-t-Butyl-2-[2-hydroxy-3-phenylmethyl-4-aza-5-oxo-6-N(t-butoxycarbonyl)amino-7-N-(methyl)tetrazolylthio]heptyl benzamide]",> 1600,–
"Cn1nnnc1SC[C@@H](NS(C)(=O)=O)C(=O)N[C@@H](Cc1ccccc1)[C@H](O)Cc1ccccc1C(=O)NC(C)(C)C [Example 39C, [2R-(2R*,3S*,6S*)]-N-t-Butyl-2-[2-hydroxy-3-phenylmethyl-4-aza-5-oxo-6-N(methylsulfonyl)amino-7-N-(methyl)tetrazolylthio)]heptyl benzamide]",14.6,–
"Cn1nnnc1[S+]([O-])C[C@@H](NS(C)(=O)=O)C(=O)N[C@@H](Cc1ccccc1)[C@H](O)Cc1ccccc1C(=O)NC(C)(C)C (stereo partly drawn) [Example 39D, [2R-(2R*,3S*,6S*)]-N-t-Butyl-2-[2-hydroxy-3-phenylmethyl-4-aza-5-oxo-6-N(methylsulfonyl)amino-7-N-(methyl)tetrazolylsulfinyl)]heptyl benzamide]",1.4,–
